Laboratory results taken from PMC8287630 (Journal for Immunotherapy of Cancer, 2021).

Tests used:
[1] = In vivo safety evaluation (body weight, hematology, serum biochemistry, histopathology); design: species or system mice; conditions: for histopathology of heart, liver, spleen, lung and kidney: HE staining, versus control group; for animal behavior and body weight after administration: tumor-bearing mice
Description: The in vivo safety of CHA-SME was evaluated based on body weight, hematological examination, and histopathological examination in mice. Body weight was monitored throughout the experiment. At the end of the in vivo antitumor experiment, peripheral blood was collected for hematological examination using an automatic hematology analyzer (MEK-7222 K; Nihon Kohden, Tokyo, Japan). Additionally, the serum was separated to detect […] (ALT), […] (AST), blood urea nitrogen (BUN), and creatinine (CRE) to evaluate hepatic and renal functions using an automatic biochemical analyzer (Accute TBA-40FR; TOSHIBA, Kawasaki, Japan). Heart, liver, spleen, lung, kidney, stomach, small intestine, and MLNs were collected, fixed in 4% PFA, and subjected to histopathological examination using HE staining.

[2] = tested on: several human cancer cell lines; conditions: cited from earlier work
[3] = Pharmacokinetic study in rats; assay type: in vivo; conditions: male, SD, rat, plasma, po, 30 mg/kg
Description: (§1) Pharmacokinetic studies of free CHA and CHA-SME were performed using SD rats and beagle dogs. […] At 5, 15, 30 min, 1, 2, 4, 6, and 8 hours, approximately 0.2 mL of blood was collected from the orbital into an anticoagulant tube and centrifuged at 4500 rpm for 10 min to separate the plasma. All plasma samples were stored frozen at –80°C until LC-MS/MS analysis (TSQ Quantum Access MAX; Thermo Fisher Scientific, Waltham, MA, USA).

[4] = Pharmacokinetic study in beagle dogs; assay type: in vivo; conditions: dog, plasma, 30 mg/kg
Description: as §1

G422 glioma = assay: In vivo antitumor efficacy, subcutaneous G422 glioma model; design: species or system ICR mice; conditions: 14 days; CHA 20 mg/kg i.p., CHA-SME 35 mg/kg p.o.
Description: A subcutaneous glioma tumor model was established in female ICR mice, as mentioned above. […] The positive control group was orally administered TMZ (50 mg/kg) for 5 days. The blank CHA-SME group was orally administered with blank CHA-SME for 14 days. At the end of the experiment, all mice were euthanized, and the tumors were collected, weighed, and photographed. […] The positive control group was orally administered TMZ (50 mg/kg) for 5 days. […] The CHA-SME group was orally administered CHA-SME (35 mg/kg) for 14 days. At the end of the experiment, all mice were euthanized, and the tumors were collected, weighed, and photographed.

DCs and T cells = assay: Immunomodulatory effects in vivo (immunophenotype of DCs and T cells, cytokines); design: species or system mice; conditions: CHA-SME 35 mg/kg; versus control treatment
Description: The in vivo immunomodulatory effects of CHA-SME were evaluated by analyzing the immunophenotype of LYM and cytokine production. LYM (DCs and T cells) infiltrated into the blood, tumor, and other important immune organs (MLNs and spleen) were quantitatively analyzed by flow cytometry. Fresh tumors were cut into small pieces and digested at 37°C for 40 min. Fresh MLNs and spleens were cut into small pieces and ground into single-cell suspensions. The cells were collected, washed, and incubated with different fluorescein-conjugated antibodies. The cell suspensions were filtered through 400-mesh sieves after two washes and analyzed by flow cytometry ([…] Biosciences, San Diego, California, USA). For immunophenotype analysis of T cells, CD45 +CD3+CD44+CD62L+cells and CD45 +CD3+CD44+CD62 L-cells were considered to be central memory T cells (TCM) and effector memory T cells (TEM), respectively. For DC maturation analysis, the expression levels of MHC I, CD40, CD80, and CD86 on DCs were examined. Different cytokines (IFN-γ, tumor necrosis factor α (TNF-α), and IL-10) in tumors, MLNs, spleens, and blood were quantitatively determined using bead-based LEGENDplex kits following the manufacturer's protocol.

[5] = assay type: in vivo; conditions: mice, oral 1 mg/kg, 30 min; figure 5C
Description: To evaluate the uptake of CHA-SME in the intestinal tissues and MLNs, Cou-6-labeled CHA-SME were orally administered to mice at 1 mg/kg. Thirty minutes later, the mice were sacrificed and intestinal segments (including duodenum, jejunum, ileum, and colon,~1 cm each) and MLNs were surgically collected, placed in embedding compound, frozen in liquid nitrogen, and dissected. The slices were fixed with 4% PFA, stained with TRITC phalloidin and DAPI, and imaged using CLSM. Additionally, MLNs were ground into single-cell suspensions and the fluorescence intensity was determined by flow cytometry.
To investigate the lymphatic transport of CHA-SME in vivo, mice were i.p. administered 3.0 mg/kg cycloheximide to block chylomicron flow.[37 38] One-hour postinjection, DiR-labeled or Cou-6-labeled CHA-SME was orally administered at 1.0 mg/kg. The mice were examined as described above.

Caco-2 cell monolayers = assay: Transport within Caco-2 cell monolayers (CLSM); assay type: cell-based, human; conditions: 4 hours incubation
Description: To establish an in vitro Caco-2 cell monolayer model, Caco-2 cells were plated in a 12-well Transwell plate with a 0.4 µm pore polycarbonate membrane insert (Corning, Corning, New York, USA). A total of 0.5 mL of cell culture medium containing 2×10^5 cells was added in the upper compartment of each Transwell insert, and 1.5 mL of cell culture medium was added in the lower compartment. The culture medium in both compartments was changed every other day in the initial 14 days and every day in the following 7 days. After 21 days of culture, transepithelial electrical resistance (TEER) was measured using Millicell-ERS (Millipore, Billerica, Massachusetts, USA) to monitor cell monolayer integrity. A TEER value exceeding 800 Ω was selected for subsequent transepithelial transport study of CHA-SME.
For the transepithelial transport study of CHA-SME, Caco-2 cell monolayers cultured in Transwell plates were incubated with Cou-6-labeled CHA-SME for 4 hours at 37°C. Then, the cells were washed thrice with cold PBS, and the polycarbonate membrane with cultured cells was carefully cut from the insert. After fixation with 4% PFA and staining with TRITC phalloidin and DAPI, the excised membrane was placed in a glass slide and examined by CLSM.

| Compound | histopathology of heart, liver, spleen, lung and kidney [1] | animal behavior and body weight after administration [1] | effective dose for inhibition of cell proliferation / induction of apoptosis [2] | AUC [3] [ng·h/mL] | bioavailability ([4]; oral, read-out: oral absolute bioavailability) [%] | AUC ([4]; po, read-out: AUC Mean±SD) [ng·h/mL] | tumor growth (G422 glioma) | proportion of infiltrating CD3+, CD4+ and CD8+ T cells in brain glioma tissues (DCs and T cells) | percentage of Cou-6-positive lymphocytes in MLNs [5] [%] | green fluorescence within Caco-2 cell monolayers (Caco-2 cell monolayers) |
| --- | --- | --- | --- | --- | --- | --- | --- | --- | --- | --- |
| O=C(/C=C/c1ccc(O)c(O)c1)O[C@@H]1C[C@](O)(C(=O)O)C[C@@H](O)[C@H]1O [CHA, Chlorogenic acid] | no obvious organ lesion | tolerated the regimens well | higher than 100 µM | 35.8 ± 10.9 | 5.85 | 692 ± 179 | able to inhibit tumor growth | no significant difference | – | – |
| CCN(CC)c1ccc2cc(-c3nc4ccccc4s3)c(=O)oc2c1 [Cou-6, Coumarin-6] | – | – | – | – | – | – | – | – | 7.2 | negligible green fluorescence |
| Cn1nnc2c(C(N)=O)ncn2c1=O [TMZ, temozolomide] | a certain degree of fragmentation and pathological changes in the heart and spleen | marked weight loss and sparse hair | – | – | – | – | – | – | – | – |
